Source: US5614627A, “Quinazoline compounds” (Eisai Co., Ltd., priority 1993, dated 1997)
Structures can show the parent of a compound that is named as a salt.

The compounds below were run against T1, calmodulin-dependent cGMP-phosphodiesterase (CaM-PDE) (Sus scrofa, UniProt A0A5G2RLV3) (assay: enzyme-inhibitory activity with calmodulin-dependent cGMP-phosphodiesterase (CaM-PDE) obtained from swine aorta). Settings: 1 μM cGMP as substrate, 1 mM Ca++, calmodulin 250 U/ml, DMSO 4% or below.
T1 construct: prepared from swine aorta; from tissue; host or cells: swine aorta
Assay type: biochemical
Protocol: Study on enzyme-inhibitory activity with calmodulin-dependent cGMP-phosphodiesterase obtained from swine aorta The enzyme activity of calmodulin-dependent cGMP-phosphodiesterase (hereinafter referred to CaM-PDE) prepared from swine aorta was determined according to the method of Thompson et al. The emzyme activity was determined in the presence of 1 mM of calcium ion (Ca^++) and calmodulin (250 U/ml) by the use of 1 μM of cGMP as the substrate. The compound of the present invention was dissolved in DMSO and added to the reaction liquid. The final concentration of DMSO in the reaction solution was adjusted to 4% or below. The preparation of the CaM-PDE was effected according to the method [[…]. and Saito, I., Isolation of cyclic nucleotide phosphodiesterase isozymes from pig aorta, Biochem. Pharmacol. in press] by the use of swine aorta. The CaM-PDE inhibitory activity of the compounds of the present invention as determined by the above method are given in Table 1.

SMILES | IC50 [nM]
COc1cc2c(NCCCCCCCC(=O)O)ncnc2c(OC)c1OC [Example 15, 4-(7-Carboxyheptyl)amino-6,7,8,-trimethoxyquinazoline] | 3620
COc1cc2c(N3CCC(=O)CC3)ncnc2c(OC)c1OC [Example 61, 4-(4-Oxopiperidino)-6,7,8-trimethoxyquinazoline] | 1100
CCOC(=O)CCCCCNc1ncnc2c(OC)c(OC)c(OC)cc12 [Example 3, 4-(5-Ethoxycarbonylpentyl)amino-6,7,8-trimethoxyquinazoline] | 2350
O=C(O)CCCCCNc1ncnc2ccc(Cl)cc12 [Example 10, 4-(5-Carboxypentyl)amino-6-chloroquinazolne] | 53900
COc1cc2c(NCCCC(=O)O)ncnc2c(OC)c1OC [Example 2, 4-(3-Carboxypropyl)amino-6,7,8-trimethoxyquinazoline] | 480
CCOC(=O)CCNc1ncnc2c(OC)c(OC)c(OC)cc12 [Example 7, 4-(2-Ethoxycarbonylethyl)amino-6,7,8-trimethoxyquinazoline] | 4620
COc1cc2c(N3CCOCC3)ncnc2c(OC)c1OC [Example 68, 4-Morpholino-6,7,8-trimethoxyquinazoline hydrochloride] | 4000
COc1cc2c(N3CCN(c4ncccn4)CC3)ncnc2c(OC)c1OC [Example 65, 4-[4-(2-Pyrimidyl)piperazin-1-yl]-6,7,8-trimethoxyquinazoline] | 10700
COc1cc2c(N3CCC(C(=O)O)CC3)ncnc2c(OC)c1OC [Example 20, 4-(4-Carboxypiperidino)-6,7,8-trimethoxyquinazoline] | 420
COc1cc2c(NCCC(=O)O)ncnc2c(OC)c1OC [Example 13, 4-(2-Carboxyethyl)amino-6,7,8-trimethoxyquinazoline] | 2370
COc1cc2c(NCCCCC#N)ncnc2c(OC)c1OC [Example 32, 4-(4-Cyanobutyl)amino-6,7,8-trimethoxyquinzaoline] | 6400
COc1cc2c(NCCCCCCC(=O)O)ncnc2c(OC)c1OC [Example 12, 4-(6-Carboxyhexyl)amino-6,7,8-trimethoxyquinazoline] | 3500

More lines, in order of falling IC50, values ahead:

IC50 [nM] | SMILES
11600 | COc1cc2c(N3CCC(C(=O)c4ccc(F)cc4)CC3)ncnc2c(OC)c1OC [Example 57, 4-[4-(4-Fluorobenzoyl)piperidino]-6,7,8-trimethoxyquinazoline]
7900 | Clc1ccc2ncnc(NCCCn3ccnc3)c2c1 [Example 38, 6-Chloro-4-[3-(imidazol-1-yl)propyl]aminoquinazoline]
4300 | CCN(CC)c1nc(Cl)nc2c(OC)c(OC)c(OC)cc12 [Example 51, 2-Chloro-4-diethylamino-6,7,8-trimethoxyquinazoline]
2800 | COc1cc2c(N3CCC(C(O)c4ccc(F)cc4)CC3)ncnc2c(OC)c1OC (stereo not drawn) [Example 58, 4-[4-(4-Fluoro-α-hydroxybenzyl)piperidino]-6,7,8-trimethoxyquinazolin]
1900 | COc1cc2c(NCCCO)ncnc2c(OC)c1OC [Example 35, 4-(3-Hydroxypropyl)amino-6,7.8-trimethoxyquinazoline]
1650 | COc1cc2c(NCCCCCC(=O)O)ncnc2c(OC)c1OC [Example 16, 4-(5-Carboxypentyl)amino-6,7,8-trimethoxyquinazoline]
1290 | COc1cc2c(NCCCCC(=O)O)ncnc2c(OC)c1OC [Example 14, 4-(4-Carboxybutyl)amino-6,7,8-trimethoxyuinazoline]
740 | CCN(CC)c1ncnc2c(OC)cc(OC)cc12 [Example 43, 4-Diethylamino-6,8-dimethoxyquinazoline hydrochloride]
740 | COc1cc2c(N3CCC(O)CC3)ncnc2c(OC)c1OC [Example 62, 4-(4-Hydroxypiperidino)-6,7,8-trimethoxyquinazoline]
730 | COc1cc2c(N(C)CCCC(=O)O)ncnc2c(OC)c1OC [Example 18, 4-[N-(3-Carboxypropyl)-N-methylaminol-]6,7,8, -trimethoxyquinazoline]
300 | CCN(CC)c1ncnc2c(OC)c(OC)c(OC)cc12 [Example 41, 4-Diethylamino-6,7,8-trimethoxyquinazoline hydrochloride]
170 | CCCNc1ncnc2c(OC)c(OC)c(OC)cc12 [Example 40, 4-Propylamino-6,7-trimethoxyquinazoline]
